Experimental data published in ChEMBL document CHEMBL1124139, “2,4-Dihydro-3H-1,2,4-triazole-3-thiones as potential antidepressant agents” (J Med Chem, 1988).

Key:
Mus musculus [1] = species on record: Mus musculus; test: Antidepressant activity was evaluated by measuring its ability to antagonize reserpine-induced ptosis in mice; assay type: functional
Mus musculus [2] = species on record: Mus musculus; test: Antidepressant activity was evaluated by measuring its ability to antagonize RO 4-1284-induced hypothermia in mice; assay type: functional
[3] = Acute cytotoxicity was evaluated as LD50 in mice (ip); assay type: organism-based; conditions: mouse, in vivo
Rattus norvegicus [4] = test: Percent inhibitory activity caused by norepinephrine after 1 i.p. injection of 10 mg/kg administered (acute treatment); assay type: functional; conditions: ip, route intraperitoneal
Rattus norvegicus [5] = test: Percent inhibitory activity caused by norepinephrine after ip injection of 10 mg/kg administered once a day for 21 days (chronic treatment); assay type: functional; conditions: 504 h, route intraperitoneal
[6] = biological target: T1, Amine oxidase [flavin-containing] B (Rattus norvegicus, UniProt P19643); test: Concentration required to inhibit Monoamine oxidase B in rat brain using [14C]phenylethylamine; assay type: tissue-based; set-up: Control: scale not given: the % may be the effect or the level left
T1 sequence (P19643 whole entry): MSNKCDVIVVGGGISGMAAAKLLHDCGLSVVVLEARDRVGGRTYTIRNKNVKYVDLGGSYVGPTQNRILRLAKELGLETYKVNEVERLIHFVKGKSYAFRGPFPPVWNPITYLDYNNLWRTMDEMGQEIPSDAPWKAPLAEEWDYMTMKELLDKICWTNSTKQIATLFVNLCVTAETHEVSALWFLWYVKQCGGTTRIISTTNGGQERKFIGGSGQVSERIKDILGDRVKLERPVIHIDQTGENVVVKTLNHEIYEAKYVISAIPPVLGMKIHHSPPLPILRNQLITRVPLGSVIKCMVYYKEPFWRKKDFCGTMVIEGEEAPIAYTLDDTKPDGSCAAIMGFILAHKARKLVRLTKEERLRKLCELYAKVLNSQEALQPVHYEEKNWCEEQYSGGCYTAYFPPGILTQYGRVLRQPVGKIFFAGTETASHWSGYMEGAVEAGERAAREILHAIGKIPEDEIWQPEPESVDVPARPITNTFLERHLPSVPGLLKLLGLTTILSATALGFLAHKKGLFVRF

[7] = biological target: T2, Amine oxidase [flavin-containing] A (Rattus norvegicus, UniProt P21396); test: Concentration required to inhibit Monoamine oxidase A activity in rat brain using [14C]5-HT; assay type: tissue-based
T2 sequence (P21396 whole entry): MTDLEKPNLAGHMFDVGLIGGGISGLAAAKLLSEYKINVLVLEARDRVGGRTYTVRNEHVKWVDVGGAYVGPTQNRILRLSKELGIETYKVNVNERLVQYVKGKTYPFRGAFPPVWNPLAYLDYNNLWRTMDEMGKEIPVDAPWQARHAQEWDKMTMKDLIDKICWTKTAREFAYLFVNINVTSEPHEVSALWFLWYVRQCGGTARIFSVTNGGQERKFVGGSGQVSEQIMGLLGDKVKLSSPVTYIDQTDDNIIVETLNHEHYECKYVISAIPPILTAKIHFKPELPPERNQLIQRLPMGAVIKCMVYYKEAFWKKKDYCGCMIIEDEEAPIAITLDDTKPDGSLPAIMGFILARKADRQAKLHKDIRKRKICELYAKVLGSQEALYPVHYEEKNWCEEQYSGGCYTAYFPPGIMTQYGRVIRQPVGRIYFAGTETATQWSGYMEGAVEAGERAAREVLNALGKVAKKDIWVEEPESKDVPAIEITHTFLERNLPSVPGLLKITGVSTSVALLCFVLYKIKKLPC

Rattus norvegicus [8] = test: Ability of compound to inhibity the ability of NE to enhance the inhibition produced by GABA after ip injection of 10 mg/kg administered once a day for 21 days (chronic treatment); assay type: functional; conditions: 504 h, route intraperitoneal
Rattus norvegicus [9] = test: Ability of compound to inhibity the ability of NE to enhance the inhibition produced by GABA after 1 i.p. injection of 10 mg/kg administered (acute treatment); assay type: functional; conditions: ip, route intraperitoneal
Rattus norvegicus [10] = species on record: Rattus norvegicus; test: Concentration required to inhibit [3H]- NE(norepinephrine) uptake in to rat cortical synaptosomes; assay type: functional; set-up: scale not given: the % may be the effect or the level left; conditions: Brain
Rattus norvegicus [11] = species on record: Rattus norvegicus; test: Concentration required to inhibit [3H]- NE(norepinephrine) uptake into rat cortical synaptosomes; assay type: functional; set-up: scale not given: the % may be the effect or the level left; conditions: Brain
Rattus norvegicus [12] = test: Inhibitory activity of compound against ability of NE to enhance the inhibition produced by GABA after 1 i.p. injection of 10 mg/kg administered (acute treatment); assay type: functional; conditions: ip, route intraperitoneal
Rattus norvegicus [13] = test: Inhibitory activity of compound against ability of NE to enhance the inhibition produced by GABA after ip injection of 10 mg/kg administered once a day for 21 days (chronic treatment); assay type: functional; conditions: 504 h, route intraperitoneal

Row | Structure (SMILES) | ED50 (Mus musculus [1]) | ED50 (Mus musculus [2]) | LD50 [3] | further results
1 | CCn1c(-c2ccccc2)nn(C)c1=S | 1.2 mg/kg | 0.58 mg/kg | 400 mg/kg | 
2 | Cn1nc(-c2ccc3c(c2)OCO3)n(C)c1=S | > 200 mg/kg | > 50 mg/kg | > 800 mg/kg | 
3 | Cn1c(S)nnc1-c1ccccc1F | > 200 mg/kg | > 25 mg/kg | > 800 mg/kg | 
4 | Cn1nc(-c2ccc(Cl)cc2)n(C)c1=S | 0.27 mg/kg | 1.34 mg/kg | 400 mg/kg | inhibition in vivo at 10 mg/kg (Rattus norvegicus [4]): 6.3%; inhibition in vivo at 10 mg/kg (Rattus norvegicus [5]): 10.9%; MAO-B activity (% of control) [6]: 75%; MAO-A activity remaining (% of control) [7]: 109%; inhibition in vivo at 10 mg/kg (Rattus norvegicus [8]): 0%; inhibition in vivo at 10 mg/kg (Rattus norvegicus [9]): 33%; Control (Rattus norvegicus [10]): 90%
5 | Cn1nc(-c2ccccc2F)n(C)c1=S | 0.23 mg/kg | 0.74 mg/kg | 400 mg/kg | Control (Rattus norvegicus [11]): 106%; MAO-B activity (% of control) [6]: 96%; MAO-A activity remaining (% of control) [7]: 72%
6 | Cn1c(S)nnc1-c1ccccc1 | > 200 mg/kg | > 50 mg/kg | > 800 mg/kg | 
7 | CN(C)CCC=C1c2ccccc2CCc2ccccc21 [AMITRIPTYLINE] | 8.73 mg/kg | 0.36 mg/kg | 100 mg/kg | 
8 | Cn1nc(-c2ccc(F)cc2F)n(C)c1=S | 2.37 mg/kg | 1 mg/kg | 400 mg/kg | 
9 | C#CCN(C)Cc1ccccc1 [PARGYLINE] | 37.1 mg/kg | 13.6 mg/kg | 400 mg/kg | 
10 | CCn1c(-c2ccc(Cl)cc2)nn(C)c1=S | 21.2 mg/kg | > 50 mg/kg | > 800 mg/kg | 
11 | Cc1ccc(-c2nn(C)c(=S)n2C)cc1 | 4.2 mg/kg | 1.74 mg/kg | 400 mg/kg | 
12 | CCn1nc(-c2ccc(Cl)cc2)n(C)c1=S | 100 mg/kg | > 50 mg/kg | 400 mg/kg | 
13 | Cn1nc(-c2c(F)cccc2F)n(C)c1=S | 0.36 mg/kg | 0.44 mg/kg | 400 mg/kg | MAO-B activity (% of control) [6]: 97%; MAO-A activity remaining (% of control) [7]: 104%; Control (Rattus norvegicus [10]): 105%
14 | CNCCCN1c2ccccc2CCc2ccccc21 [DESIPRAMINE] | 1.86 mg/kg | 0.94 mg/kg | 75 mg/kg | inhibition in vivo at 10 mg/kg (Rattus norvegicus [4]): 3.5%; inhibition in vivo at 10 mg/kg (Rattus norvegicus [12]): 68%; inhibition in vivo at 10 mg/kg (Rattus norvegicus [5]): 7.8%; inhibition in vivo at 10 mg/kg (Rattus norvegicus [13]): 49%; Control (Rattus norvegicus [10]): 37%
15 | Cn1nc(-c2ccccc2)n(C)c1=O | > 200 mg/kg | > 50 mg/kg | 400 mg/kg | 
16 | Cn1nc(-c2c(Cl)cccc2Cl)n(C)c1=S | > 100 mg/kg | > 50 mg/kg | 400 mg/kg | 
17 | Cn1nc(-c2cccc3ccccc23)n(C)c1=S | > 200 mg/kg | > 50 mg/kg | > 800 mg/kg | 
18 | Fc1ccc(-c2n[nH]c(S)n2)cc1 | > 200 mg/kg | > 50 mg/kg | 400 mg/kg | 

Row | Structure (SMILES) | ED50 (Mus musculus [1]) | ED50 (Mus musculus [2]) | LD50 [3] | further results
19 | Cn1c(S)nnc1-c1ccc(Cl)cc1 | > 200 mg/kg | > 50 mg/kg | > 800 mg/kg | 
20 | Cn1nc(-c2ccccc2)n(C)c1=S | 0.13 mg/kg | 0.15 mg/kg | 100 mg/kg | Control (Rattus norvegicus [11]): 92%; MAO-B activity (% of control) [6]: 110%; MAO-A activity remaining (% of control) [7]: 104%
21 | CC(Cc1ccccc1)NN (stereo not given) [PHENIPRAZINE] | 1.61 mg/kg | 1.1 mg/kg | 100 mg/kg | 
22 | Sc1n[nH]c(-c2ccc(Cl)cc2)n1 | > 200 mg/kg | > 50 mg/kg | > 800 mg/kg | 
23 | Cn1nc(-c2ccc(Cl)cc2Cl)n(C)c1=S |  | > 25 mg/kg | > 80 mg/kg | 
24 | Cn1nc(-c2ccc(Cl)c(Cl)c2)n(C)c1=S | 4.4 mg/kg | 29 mg/kg | > 800 mg/kg | 
25 | CNCCC=C1c2ccccc2CCc2ccccc21 [NORTRIPTYLINE] | 4.85 mg/kg | 0.71 mg/kg | 50 mg/kg | 
26 | Cn1nc(-c2cccc(C(F)(F)F)c2)n(C)c1=S | > 200 mg/kg | > 50 mg/kg | 400 mg/kg | 
27 | Cn1nc(-c2cccc(F)c2)n(C)c1=S [SURITOZOLE] | 0.29 mg/kg | 0.37 mg/kg | 200 mg/kg | MAO-B activity (% of control) [6]: 96%; MAO-A activity remaining (% of control) [7]: 105%; Control (Rattus norvegicus [10]): 110%
28 | COc1ccc(-c2nn(C)c(=S)n2C)cc1 | 3.3 mg/kg | > 25 mg/kg | > 800 mg/kg | 
29 | Cn1nc(-c2ccc(F)cc2)n(C)c1=S | 1 mg/kg | 0.61 mg/kg | 200 mg/kg | MAO-B activity (% of control) [6]: 90%; MAO-A activity remaining (% of control) [7]: 70%; Control (Rattus norvegicus [10]): 104%
30 | CNCCCC1c2ccccc2C=Cc2ccccc21 [PROTRIPTYLINE] | 0.43 mg/kg | 0.14 mg/kg | 50 mg/kg | 
31 | C#CCN(C)[C@H](C)Cc1ccccc1 [SELEGILINE] | 4.9 mg/kg | 1.8 mg/kg | 200 mg/kg | Control [6]: 13%
32 | CN(C)CCCN1c2ccccc2CCc2ccccc21 [IMIPRAMINE] |  | 0.5 mg/kg |  | 
33 | Cn1nc(-c2ccc(Cl)cc2)nc1S | > 200 mg/kg | > 50 mg/kg | > 800 mg/kg | 
34 | CCCn1c(-c2ccc(Cl)cc2)nn(C)c1=S | 12.5 mg/kg | > 12.5 mg/kg | 200 mg/kg | 
35 | Cn1nc(-c2ccccc2Cl)n(C)c1=S | 0.58 mg/kg | 0.37 mg/kg | 200 mg/kg | 
